Where “and” joins values, the source holds several entries; their conditions need not be identical. Equal values may be shown once.
Biological target: MAPK14 (human) (UniProt Q16539)
Assay: Inhibition of MAPK14 Kinase Activity
Conditions: THP.1 monocytic

Sequence of MAPK14 (human) (Q16539 whole entry, looked up): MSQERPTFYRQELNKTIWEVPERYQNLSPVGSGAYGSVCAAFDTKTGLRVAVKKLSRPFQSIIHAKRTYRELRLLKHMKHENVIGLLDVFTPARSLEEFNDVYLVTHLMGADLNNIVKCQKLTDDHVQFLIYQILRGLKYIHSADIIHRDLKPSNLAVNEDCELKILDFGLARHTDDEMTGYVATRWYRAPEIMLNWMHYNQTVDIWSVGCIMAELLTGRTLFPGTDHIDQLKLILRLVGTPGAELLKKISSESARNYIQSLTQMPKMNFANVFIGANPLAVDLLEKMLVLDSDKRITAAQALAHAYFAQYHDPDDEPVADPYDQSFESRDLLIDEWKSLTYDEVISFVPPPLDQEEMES

O=C(c1ccc(-n2ccc(OCc3ccccc3)c(Br)c2=O)cc1)N1CCOCC1 showed an IC50 of 1000 to 25000 nM.
Cc1ccc(C(=O)NCCO)cc1-n1c(C)cc(OCc2ccc(F)cc2F)c(Br)c1=O gave an IC50 of under 1000 nM.
In the case of Cc1c(OCc2ccc(F)cc2)ccn(Cc2cccc(F)c2)c1=O, the IC50 is reported as 1000 to 25000 nM.
Molecule Cc1cc(OCc2ccc(F)cc2F)c(Br)c(=O)n1Cc1ccccc1CN has an IC50 of 1000 to 25000 nM.
In the case of CC(C)(C)c1ccc(Cn2ccc(OCc3ccc(F)cc3F)c(Br)c2=O)cc1, the IC50 is reported as 1000 to 25000 nM.
Molecule O=c1c(Br)c(OCc2ccc(F)cc2F)cc(CO)n1-c1c(F)cc(F)cc1F has an IC50 of under 1000 nM.
Molecule CCOC(=O)c1cccc(-n2c(C)cc(OCc3ccc(F)cc3F)c(Br)c2=O)c1 has an IC50 of under 1000 nM.
With O=c1c(Br)c(OCc2ccccc2)c(Br)cn1Cc1ccccc1 the IC50 was over 100000 nM.
Cc1cc(OCc2ccc(F)cc2F)c(Br)c(=O)n1-c1cccc(C(=O)N(C)CCO)c1 gave an IC50 of 1000 to 25000 nM.
Work on Cc1cc(OCc2cccc(Cl)c2)cc(=O)n1Cc1ccccc1 yielded an IC50 of over 100000 nM.
Molecule Cc1cc(OCc2ccc(F)cc2F)c(Br)c(=O)n1Cc1cccc(CNC(=O)CO)c1 has an IC50 of under 1000 nM.
In the case of CN(C(=O)Oc1ccn(Cc2ccccc2)c(=O)c1Br)c1ccccc1, the IC50 is reported as over 100000 nM.
With Cc1cc(NCc2ccc(F)cc2F)c(Cl)c(=O)n1-c1c(F)cccc1F the IC50 was 1000 to 25000 nM.
Cc1cc(OCc2ccc(F)cc2F)c(Br)c(=O)n1-c1ccccc1C(F)(F)F gave an IC50 of under 1000 nM.
In the case of Cc1cc(OCc2ccc(F)cc2F)c(Br)c(=O)n1Cc1cnc(C(=O)N2CCN(C)CC2)cn1, the IC50 is reported as under 1000 nM.
With Cc1cc(OCc2ccc(F)cc2F)c(Br)c(=O)n1Cc1ccc(C(=O)NCCN)cc1 the IC50 was under 1000 nM.
Cc1cc(OCc2ccc(F)cc2F)c(Br)c(=O)n1Cc1cnc(CO)cn1 was tested, and the IC50 was under 1000 nM.
NC(=O)c1ccccc1Cn1ccc(OCc2ccccc2)c(Br)c1=O showed an IC50 of 1000 to 25000 nM.
O=c1c(Br)c(OCc2ccc(F)cc2F)cc(CN2CCOCC2)n1-c1c(F)cccc1F showed an IC50 of under 1000 nM.
O=C(O)c1cc(OCc2ccc(F)cc2F)c(Br)c(=O)n1-c1c(F)cccc1F showed an IC50 of 1000 to 25000 nM.
Cc1cc(OCc2ccc(F)cc2F)c(Br)c(=O)n1-c1c(F)c(Br)c(O)c(Br)c1F was tested, and the IC50 was 1000 to 25000 nM.
Work on O=c1cc(OCc2ccccc2)ccn1Cc1ccc(OC(F)(F)F)cc1 yielded an IC50 of 25000 to 100000 nM.
With Cc1cc(OCc2ccc(F)cc2F)c(Br)c(=O)n1-c1ccc(C(N)=O)cc1Cl the IC50 was under 1000 nM.
O=c1[nH]ccc(OCc2ccccc2)c1Br gave an IC50 of over 100000 nM.
In the case of O=c1c(Br)c(OCc2ccccc2)ccn1Cc1ccccc1F, the IC50 is reported as under 1000 nM.
In the case of Cc1cc(OCc2ccc(F)cc2F)c(Cl)c(=O)n1-c1c(F)cc(F)cc1F, the IC50 is reported as under 1000 nM.
COC(=O)c1ccc(C)c(-n2c(C)cc(OCc3ccc(F)cc3F)c(Cl)c2=O)c1 showed an IC50 of under 1000 nM.
In the case of Cc1cc(OCc2ccc(F)cc2F)c(Br)c(=O)n1-c1ccc(C(=O)NO)cc1, the IC50 is reported as over 100000 nM.
Molecule O=c1c(Br)c(OCc2ccc(C(F)(F)F)cc2)ccn1Cc1cccc(F)c1 has an IC50 of 1000 to 25000 nM.
Work on Cc1cc(OCc2ccc(F)cc2F)c(Br)c(=O)n1Cc1ccc(S(=O)(=O)N(C)C)cc1 yielded an IC50 of under 1000 nM.
Cc1cc(OCc2ccc(F)cc2F)c(Br)c(=O)n1-c1cccc(CN(C)C)c1 gave an IC50 of 1000 to 25000 nM.
With CCc1c(OCc2ccccc2)ccn(Cc2ccccc2)c1=O the IC50 was 1000 to 25000 nM.
Work on O=c1c(Br)c(OCc2ccccc2)ccn1CC1CCNCC1 yielded an IC50 of 25000 to 100000 nM.
Cc1ccc(COc2ccn(Cc3ccccc3)c(=O)c2Br)cc1 showed an IC50 of 1000 to 25000 nM.
Cc1cc(OCc2ccc(F)cc2F)c(Br)c(=O)n1Cc1cnc(C(C)(C)O)cn1 showed an IC50 of 1000 to 25000 nM.
Molecule O=c1c(Br)c(NCc2cccc(F)c2)ccn1Cc1cccc(F)c1 has an IC50 of 1000 to 25000 nM.
For Cc1cc(NCc2ccc(F)cc2)c(Br)c(=O)n1Cc1ccc(F)cc1, the IC50 was under 1000 nM.
C=CCNc1c(I)c(C)n(-c2c(F)cccc2F)c(=O)c1Br showed an IC50 of 1000 to 25000 nM.
With O=c1c(Br)c(OCc2ccccc2)ccn1Cc1cccc(F)c1 the IC50 was under 1000 nM.
In the case of C=Cc1c(OCc2ccccc2)ccn(Cc2ccccc2)c1=O, the IC50 is reported as 25000 to 100000 nM.
In the case of Cc1cc(OCc2ccc(F)cc2F)c(Br)c(=O)n1Cc1cccc(CN2CCOCC2)c1, the IC50 is reported as under 1000 nM.
Cc1cc(OCc2ccc(F)cc2F)c(Br)c(=O)n1Cc1ccc(C(=O)NCCCN)cc1 showed an IC50 of under 1000 nM.
Molecule COCCNCc1cc(OCc2ccc(F)cc2F)c(Br)c(=O)n1-c1c(F)cccc1F has an IC50 of under 1000 nM.
For N#Cc1ccc(COc2ccn(Cc3cccc(F)c3)c(=O)c2Br)cc1, the IC50 was 25000 to 100000 nM.
O=c1c(Br)c(OCc2ccccc2C(F)(F)F)ccn1Cc1ccccc1 was tested, and the IC50 was 25000 to 100000 nM.
For Cc1cc(OCc2ccc(F)cc2F)c(Br)c(=O)n1-c1cccc(C(N)=O)c1, the IC50 was under 1000 nM.
Molecule C=Cc1c(OCc2ccc(F)cc2F)c(Br)c(=O)n(-c2c(F)cccc2F)c1C has an IC50 of 25000 to 100000 nM.
Cc1ccc(C(C)(C)O)cc1-n1c(C)cc(OCc2ccc(F)cc2F)c(Br)c1=O was tested, and the IC50 was under 1000 nM.
For Cc1cc(OCc2ccc(F)cc2F)c(Br)c(=O)n1Cc1ccc(C(=O)N(CCO)CCO)cc1, the IC50 was under 1000 nM.
Work on Cc1cc(OCc2ccc(F)cc2F)c(Br)c(=O)n1-c1ccc(C(N)=O)cc1 yielded an IC50 of 1000 to 25000 nM.
For O=c1c(Br)c(OCc2ccccc2)ccn1Cc1ccccc1C(F)(F)F, the IC50 was over 100000 nM.
COCCN(C)C(=O)c1cccc(-n2c(C)cc(OCc3ccc(F)cc3F)c(Br)c2=O)c1 was tested, and the IC50 was 1000 to 25000 nM.
Molecule Cc1cc(OCc2ccc(F)cc2F)c(Br)c(=O)n1Cc1cnc(C(=O)N(C)C)cn1 has an IC50 of under 1000 nM.
O=c1c(Br)c(NCc2ccccc2)ccn1Cc1cccc(F)c1 was tested, and the IC50 was 1000 to 25000 nM.
Cc1cc(OCc2ccc(F)cc2F)c(Br)c(=O)n1-c1c(F)cc(F)cc1F showed an IC50 of under 1000 nM.
CC(=O)NCc1cccc(-n2c(C)cc(OCc3ccc(F)cc3F)c(Br)c2=O)c1 was tested, and the IC50 was 1000 to 25000 nM.
Work on CNC(=O)c1ccc(-n2c(C)cc(OCc3ccc(F)cc3F)c(Br)c2=O)cc1 yielded an IC50 of over 100000 nM.
For Cc1cc(OCc2ccc(F)cc2F)c(Br)c(=O)n1-c1cccc(C(=O)NCCCN)c1, the IC50 was under 1000 nM.
O=c1cc(OCc2ccccc2Cl)ccn1Cc1ccccc1 showed an IC50 of 25000 to 100000 nM.
With Cc1c(OCc2ccccc2)ccn(Cc2cccc(F)c2)c1=O the IC50 was 1000 to 25000 nM.
For Cc1cc(OCc2ccc(F)cc2F)c(Cl)c(=O)n1-c1cccc(C(N)=O)c1, the IC50 was under 1000 nM.
Cc1cc(OCc2ccc(F)cc2F)c(Br)c(=O)n1-c1cccc(C(=O)NCCN)c1 was tested, and the IC50 was under 1000 nM.
For COc1cccc(COc2ccn(Cc3cccc(F)c3)c(=O)c2Br)c1, the IC50 was 1000 to 25000 nM.
Molecule Cc1c(CO)c(OCc2ccc(F)cc2F)c(Br)c(=O)n1-c1c(F)cccc1F has an IC50 of 1000 to 25000 nM.
Cc1ccc(CN(C)C)cc1-n1c(C)cc(OCc2ccc(F)cc2F)c(Br)c1=O gave an IC50 of 1000 to 25000 nM.
Molecule CNCc1cnc(Cn2c(C)cc(OCc3ccc(F)cc3F)c(Br)c2=O)cn1 has an IC50 of 1000 to 25000 nM.
Molecule COCCNC(=O)c1cccc(-n2c(C)cc(OCc3ccc(F)cc3F)c(Br)c2=O)c1 has an IC50 of under 1000 nM.
With Cc1ccc(CO)cc1-n1c(C)cc(OCc2ccc(F)cc2F)c(Br)c1=O the IC50 was under 1000 nM.
For O=c1c(Br)c(NCc2cccc(C(F)(F)F)c2)ccn1Cc1cccc(F)c1, the IC50 was 1000 to 25000 nM.
Cc1cc(OCc2ccc(F)cc2F)c(Br)c(=O)n1-c1cc(CO)ccc1Cl was tested, and the IC50 was under 1000 nM.
Molecule Cc1cc(OCc2ccccc2)cc(=O)n1Cc1ccccc1 has an IC50 of 25000 to 100000 nM.
Cc1cccc(C)c1-n1c(C)cc(OCc2c(F)cc(F)cc2F)c(Br)c1=O gave an IC50 of under 1000 nM.
For Cc1cccc(C)c1-n1c(C)cc(OCc2ccc(F)cc2F)c(Br)c1=O, the IC50 was under 1000 nM.
Work on CNC(=O)c1ccc(C)c(-n2c(C)cc(OCc3ccc(F)cc3CNC(=O)OC)c(Br)c2=O)c1 yielded an IC50 of under 1000 nM.
For Cc1cc(OCc2ccc(F)cc2F)c(Br)c(=O)n1-c1ccc(C(C)(C)O)cn1, the IC50 was over 100000 nM.
In the case of Cc1cc(OCc2ccc(F)cc2F)c(Cl)c(=O)n1-c1cc(CN)ccc1F, the IC50 is reported as under 1000 nM.
With CNC(=O)c1ccc(Cn2c(C)cc(OCc3ccc(F)cc3F)c(Br)c2=O)cc1 the IC50 was < 1000 nM and 1000 to 25000 nM.
In the case of Cc1cc(OCc2ccc(F)cc2F)c(Br)c(=O)n1Cc1cccc(CNC(N)=O)c1, the IC50 is reported as 1000 to 25000 nM.
N#Cc1ccc(Cn2ccc(OCc3ccccc3)c(Br)c2=O)cc1 gave an IC50 of under 1000 nM.
O=c1cc(OCc2ccccc2)ccn1Cc1ccc(Br)cc1 gave an IC50 of over 100000 nM.
With COC(=O)c1ccc(Cn2ccc(OCc3ccccc3)c(Br)c2=O)cc1 the IC50 was under 1000 nM.
Molecule O=C(O)c1ccc(Cn2ccc(OCc3ccccc3)c(Br)c2=O)cc1 has an IC50 of under 1000 nM.
Molecule CNC(=O)c1ccc(OC)c(-n2c(C)cc(OCc3ccc(F)cc3F)c(Br)c2=O)c1 has an IC50 of under 1000 nM.
Cc1cc(OCc2ccc(F)cc2F)c(Br)c(=O)n1-c1cccc(CNC(=O)CO)c1 gave an IC50 of 1000 to 25000 nM.
Work on N#Cc1ccccc1Cn1ccc(OCc2ccccc2)c(Br)c1=O yielded an IC50 of 1000 to 25000 nM.
For Cc1c(C=O)c(OCc2ccc(F)cc2F)c(Br)c(=O)n1-c1c(F)cccc1F, the IC50 was 25000 to 100000 nM.

Reference: the Kinase Knowledgebase extract (Sharma et al. 2016)
